Test results reported in patent US9486440B2, “Uses of indole-ketones or indolidones as neuro-protective drugs” (UNIVERSITY OF MACAU, priority 2011, dated 2016).
Entries after “also recorded” stand apart in the source; their conditions may differ.

Assays:
[1] = tested on: zebrafish larvae; test: Locomotion behavioral test of zebrafish larvae; type: in vivo; details: for MPTP-induced deficit of swimming behavior (total distance travelled): 200 μM MPTP 2 days, then 10 μM MPTP plus drug 3 days, L-deprenyl 20 μM, L-dopa 150 μM
Description: Wild-type zebrafish (AB strain) and Tg (fli-1:EGFP) transgenic zebrafish were maintained as described in the Zebrafish Handbook (Westerfield, 1993). Zebrafish embryos were generated by natural pair-wise mating (3-12 months old) and raised at 28.5° C. in embryo medium (13.7 mM NaCl, 540 μM KCl, pH 7.4, 25 μM Na2HPO4, 44 μM KH2PO4, 300 μM CaCl2, 100 μM MgSO4, 420 μM NaHCO3, pH 7.4). […] An equal concentration of DMSO in embryo medium was used as vehicle control in each experiment.
Thus the MPTP exposure needs to last 5 day from 1 dpf. […] Thus subsequent locomotion behavioral studies were done with 200 μM MPTP for treatment for 2 days at 1 dpf then replacing insult with 10 μM MPTP for incubation for another 3 days.
(§1) After drug treatment, zebrafish larvae at 6 dpf were transferred into 96-well plates (1 fish/well and 12 larvae/group). Fishes responded with excessive stress reaction (such as rapid and disorganized swimming or immobility for 2 min) due to the handling and monitoring of the behavior were discarded. The experiments were performed in a calm enclosed area. The larvae were allowed to habituate to the new environment for 30 min prior to experiments. Behavior was monitored by an automated video tracking system (Viewpoint, ZebraLab, LifeSciences). The 96-well plates and camera were housed inside a Zebrabox and the swimming pattern of each fish was recorded for 10 min and repeated 3 times, once every other 10 min. The total distance moved was defined as the distance (in cm) that the fish had moved during one session (10 min).
Normally as late as 3 dpf, zebrafish larvae show very little spontaneous swimming, but by 5 dpf they spontaneously swim longer distances and independently search for food. The MPTP exposure therefore needs to last 5 days from 1 dpf. […] Thus subsequent locomotion behavioral studies were performed with 200 μM MPTP for 2-day treatment at 1 dpf then replacing with media containing 10 μM MPTP for another 3-day incubation.
as §1, with “The larvae were discarded due to” for “Fishes responded with”, “reaction to the handling and monitoring of behavior” for “reaction”, “min).” for “min) due to the handling and monitoring of the behavior were discarded.”, “sealed” for “enclosed”, “min. Swimming behavior” for “min prior to experiments. Behavior”, “for” for “repeated”

[2] = tested on: CGNs; test: MPP+-induced neurotoxicity in CGNs, MTT and LDH assays; type: cell-based, rat; details: for MPP+-induced neurotoxicity, co-administration: co-administrated with 35 μM MPP+, SU4312 10-20 μM, PTK787/ZK222584 10 μM, MTT at 24 hours; for MPP+-induced cell death (cell viability, MTT and LDH assays): pre-treatment 2 hours, then 35 μM MPP+ for 24 hours; for cell proliferative or cytotoxic effects of the drug alone: without MPP+, 26 hours, SU4312 1-30 μM, SU5416 30 μM, sunitinib 2 μM
Description: All animal experiments were conducted according to the ethical guidelines of ICMS, Macau University and the Animal Care Facility, The Hong Kong Polytechnic University. Rat CGNs were prepared from 8-day-old Sprague-Dawley rats (The Animal Care Facility, The Hong Kong Polytechnic University) as described by Li et al., 2005. Briefly, neurons were seeded at a density of 2.7×10^5 cells/ml in basal modified Eagle's medium (Invitrogen) containing 10% fetal bovine serum, 25 mM KCl, 2 mM glutamine, and penicillin (100 units/ml)/streptomycin (100 μg/ml). Cytosine arabinoside (10 μM) was added to the culture medium 24 hour after plating to limit the growth of non-neuronal cells. With the use of this protocol, more than 95% of the cultured cells were granule neurons.
(§2) The percentage of surviving neurons in the presence of SU4312 and/or MPP^+ was estimated by determining the activity of mitochondrial dehydrogenases with 3(4,5-dimethylthiazol-2-yl)-2.5-diphenyltetrazolium bromide (MTT) assay (Li et al., 2007). The assay was performed according to the specifications of the manufacturer (MTT kit I; Roche Applied Science). Briefly, the neurons were cultured in 96-well plates, 10 μl of 5 mg/ml MTT labeling reagent was added to each well containing cells in 100 μl of medium, and the plates were incubated for 4 hours in a humidified incubator at 37° C. After the incubation, 100 μl of the solvating solution (0.01 N HCl in 10% SDS solution) was added to each well for 16-20 hours. Absorbance of the samples was measured at a wavelength of 570 nm with 655 nm as a reference wavelength. Unless otherwise indicated, the extent of MTT conversion in cells exposed to MPP^+ is expressed as a percentage of the control.
Cytotoxicity was determined by measuring the release of lactate dehydrogenase (LDH). Briefly, cells were precipitated by centrifugation at 500 g for 5 min at room temperature, 50 μl of the supernatants was transferred into new wells, and LDH was determined using the in vitro toxicology assay kit (Roche). The absorbance of the samples was measured at a wavelength of 490 nm with 655 nm as a reference wavelength.
Rat CGNs were prepared from 8-day-old Sprague-Dawley rats (The Animal Care Facility, The Hong Kong Polytechnic University) as described by Li et al., 2005. Briefly, neurons were seeded at a density of 2.7×10^5 cells/ml in basal modified Eagle's medium (Invitrogen) containing 10% fetal bovine serum, 25 mM KCl, 2 mM glutamine, and penicillin (100 units/ml)/streptomycin (100 μg/ml). Cytosine arabinoside (10 μM) was added to the culture medium 24 hours after plating to limit the growth of non-neuronal cells. With the use of this protocol, more than 95% of the cultured cells were granule neurons.
as §2, with “The” for “The percentage of surviving neurons in the presence of SU4312 and/or MPP^+ was estimated by determining the activity of mitochondrial dehydrogenases with 3(4,5-dimethylthiazol-2-yl)-2.5-diphenyltetrazolium bromide (MTT) assay (Li et al., 2007). The”, “incubated at 37° C.” for “incubated”, “incubator.” for “incubator at 37° C.”, “The absorbance” for “Absorbance”

In the case of Clc1ccc(Nc2nnc(Cc3ccncc3)c3ccccc23)cc1 [PTK787/ZK222584], the “MPTP-induced deficit of swimming behavior (total distance travelled)” value (from here on “MPTP-induced deficit”) [1] is reported as “but not PTK787/ZK222584 ameliorated MPTP-induced deficit of swimming behavior”, the “swimming behavior of normal zebrafish larvae, drug alone” value ([1]; zebrafish, in vivo) is reported as “Neither SU4312 nor PTK787/ZK222584 treatment alone notably altered the swimming behavior” and the “MPP+-induced neurotoxicity, co-administration” value [2] is reported as “did not show neuroprotective effects”. For the same compound, the “MPP+-induced cell death (cell viability, MTT and LDH assays)” value (“MPP+-induced cell death” for short) [2] was “at 3-10 μM failed to block neuronal loss in vitro”.

For CN(C)c1ccc(C=C2C(=O)Nc3ccccc32)cc1 [SU4312, 3-[4-(dimethylamino)benzylidenyl]indolin-2-one], the “MPTP-induced deficit” value [1] was “ameliorated MPTP-induced deficit of swimming behavior”, the “swimming behavior of normal zebrafish larvae, drug alone” value ([1]; without MPTP) was “Neither SU4312 nor PTK787/ZK222584 treatment alone notably altered the swimming behavior” and the “MPP+-induced neurotoxicity, co-administration” value [2] was “still had neuroprotective effects”. For the same compound, the “MPP+-induced cell death” value [2] was “prevented MPP^+-induced cell death in a concentration-dependent manner” and the “cell proliferative or cytotoxic effects of the drug alone” value [2] was “did not affect cell proliferation or show any cytotoxic effects; also recorded: did not induce any neurotoxicity”.

With Cc1cc(C)c(/C=C2\C(=O)Nc3ccccc32)[nH]1 [SU5416, (3Z)-3-[(3,5-dimethyl-1H-pyrrol-2-yl)methylidene]-1,3-dihydro-2H-indol-2-one] the “MPTP-induced deficit” value [1] was “ameliorated the MPTP-induced deficit of swimming behavior”, the “MPP+-induced cell death” value [2] was “prevented 35 μM MPP^+-induced cell death in a concentration-dependent manner” and the “cell proliferative or cytotoxic effects of the drug alone” value [2] was “did not produce any cell proliferative or cytotoxic effects”.
